We go through 17 compounds from patent US9745310B2 (SK BIOPHARMACEUTICALS CO., LTD., priority 2015, dated 2017).

Chain of human mGluR5 receptor (P41594 21-1212): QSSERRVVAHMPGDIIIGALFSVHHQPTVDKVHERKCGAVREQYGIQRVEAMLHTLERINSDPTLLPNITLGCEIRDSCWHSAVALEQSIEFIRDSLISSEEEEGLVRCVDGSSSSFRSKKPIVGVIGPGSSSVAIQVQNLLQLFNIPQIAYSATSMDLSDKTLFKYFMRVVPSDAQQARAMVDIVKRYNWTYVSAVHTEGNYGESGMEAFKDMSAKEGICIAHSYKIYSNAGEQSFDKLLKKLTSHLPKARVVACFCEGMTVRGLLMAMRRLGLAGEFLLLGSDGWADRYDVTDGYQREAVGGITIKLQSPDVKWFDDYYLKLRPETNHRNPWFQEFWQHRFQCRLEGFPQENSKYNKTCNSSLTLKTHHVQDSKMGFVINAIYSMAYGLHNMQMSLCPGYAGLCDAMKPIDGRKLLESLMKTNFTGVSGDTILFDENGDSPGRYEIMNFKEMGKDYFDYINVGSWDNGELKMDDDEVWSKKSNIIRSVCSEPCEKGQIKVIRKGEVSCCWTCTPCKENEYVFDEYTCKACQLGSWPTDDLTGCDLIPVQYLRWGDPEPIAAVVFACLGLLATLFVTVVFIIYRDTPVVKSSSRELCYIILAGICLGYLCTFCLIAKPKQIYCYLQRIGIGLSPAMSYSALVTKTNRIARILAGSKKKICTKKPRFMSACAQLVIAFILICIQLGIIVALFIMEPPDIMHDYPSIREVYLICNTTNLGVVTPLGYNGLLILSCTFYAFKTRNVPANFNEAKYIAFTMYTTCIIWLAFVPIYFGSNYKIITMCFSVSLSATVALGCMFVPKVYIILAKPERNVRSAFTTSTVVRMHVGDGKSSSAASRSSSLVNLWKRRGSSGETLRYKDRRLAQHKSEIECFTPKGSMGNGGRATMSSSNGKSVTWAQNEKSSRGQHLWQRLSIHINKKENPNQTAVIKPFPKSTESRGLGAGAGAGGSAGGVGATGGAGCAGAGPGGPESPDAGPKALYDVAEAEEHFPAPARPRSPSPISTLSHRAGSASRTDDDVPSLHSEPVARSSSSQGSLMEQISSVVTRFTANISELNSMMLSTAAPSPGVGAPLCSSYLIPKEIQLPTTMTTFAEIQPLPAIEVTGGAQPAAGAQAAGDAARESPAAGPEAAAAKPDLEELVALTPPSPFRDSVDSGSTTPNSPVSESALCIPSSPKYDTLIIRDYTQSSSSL

The target of this assay is human mGluR5 receptor (Homo sapiens (Human), UniProt P41594). Nature of the assay: Calcium influx assay based on fluorescence (mGluR5 PAM activity). As to conditions: human mGluR5 receptor-overexpressed HEK293 cell line; L-glutamate EC20; Fluo-4, FLIPR. In a few lines:
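HEK293 cells overexpressing human mGluR5, loaded 1 h with Fluo-4 at 37° C. Compounds (10 μM to 10 nM final, 0.1–0.2% DMSO) added with an EC20 concentration of L-glutamate, and Ca2+ response read by FLIPR at room temperature. Activity scaled as 0% for EC20 glutamate alone and 100% for glutamate maximum.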
In the case of `COc1cc(F)ccc1-c1cnc2nc(COc3ccccc3)cn2c1` [Example 20, 6-(2-methoxy-4-fluorophenyl)-2-phenoxymethylimidazo[1,2-a]pyrimidine], the EC50 (commonly the midpoint of the concentration-response curve) lay in the range of 100 to 500 nM.
To `Cc1cc(Cl)ccc1-c1cnc2nc(COc3ccccn3)cn2n1` [Example 190, 2-(4-chloro-2-methyl-phenyl)-6-(2-pyridyloxymethyl)imidazo[1,2-b][1,2,4]triazine] belongs 100 to 500 nM; to `Cc1ccccc1-c1cnc2nc(COc3ccc(F)cn3)cn2c1` [Example 126, 2-[(5-fluoro-2-pyridyl)oxymethyl]-6-(o-tolyl)imidazo[1,2-a]pyrimidine], 100 to 500 nM; to `NC(=O)OCc1cc(F)ccc1-c1cnc2nc(COc3ccccn3)cn2c1` [Example 195, [5-fluoro-2-[2-(2-pyridyloxymethyl)imidazo[1,2-a]pyrimidin-6-yl]phenyl]methyl carbamate], 100 to 500 nM.
As to `COc1cncc(-c2cnc3nc(COc4ccc(F)cc4)cn3c2)c1` [Example 89, 2-[(4-fluorophenoxy)methyl]-6-(5-methoxy-3-pyridyl)imidazo[1,2-a]pyrimidine], the EC50 was 500 to 1000 nM.
To `Fc1ccc(-c2cnc3nc(COc4ccccc4)cn3c2)c2c1OCO2` [Example 24, 6-(7-fluorobenzo[1,3]dioxol-4-yl)-2-phenoxymethylimidazo[1,2-a]pyrimidine] belongs 100 to 500 nM; to `Fc1ccc(OCc2cn3cc(-c4cnccc4Cl)cnc3n2)cc1` [Example 87, 6-(4-chloro-3-pyridyl)-2-[(4-fluorophenoxy)methyl]imidazo[1,2-a]pyrimidine], 500 to 1000 nM.
Under `Fc1ccc(-c2cnc3nc(COc4ccccc4)cn3c2)cc1` [Example 8, 6-(4-fluorophenyl)-2-phenoxymethylimidazo[1,2-a]pyrimidine] stands 100 to 500 nM; under `Nc1ccccc1-c1cnc2nc(COc3cccc(F)c3)cn2c1` [Example 44, 6-(2-aminophenyl)-2-(3-fluorophenoxymethyl)imidazo[1,2-a]pyrimidine], 100 to 500 nM; under `Cc1cc(Cl)ccc1-c1cnc2nc(COc3ccc(F)cn3)cn2c1` [Example 127, 6-(4-chloro-2-methyl-phenyl)-2-[(5-fluoro-2-pyridyl)oxymethyl)imidazo[1,2-a]pyrimidine], 100 to 500 nM.
Under `Fc1ccc(OCc2cn3cc(-c4ccc(F)cc4CCl)cnc3n2)cc1` [Example 197, 6-[2-(chloromethyl)-4-fluoro-phenyl]-2-[(4-fluorophenoxy)methyl)imidazo[1,2-a]pyrimidine] stands 100 to 500 nM; under `Cc1ccc(-c2cnc3nc(COc4ccc(F)cc4)cn3c2)c(F)c1` [Example 64, 6-(2-fluoro-4-methyl-phenyl)-2-[(4-fluorophenoxy)methyl]imidazo[1,2-a]pyrimidine], 500 to 1000 nM; under `[2H]c1c([2H])c([2H])c(OCc2cn3cc(-c4ccc(F)cc4)cnc3n2)c([2H])c1[2H]` [Example 59, 6-(4-fluorophenyl)-2-[(2,3,4,5,6-pentadeuteriophenoxy)methyl]imidazo[1,2-a]pyrimidine], 100 to 500 nM.
Consider `COc1cc(C#N)ccc1-c1cnc2nc(COc3ccccc3)cn2c1` [Example 23, 6-(4-cyano-2-methoxyphenyl)-2-phenoxymethylimidazo[1,2-a]pyrimidine], for which the EC50 was 100 to 500 nM.
Consider `Nc1cc(F)ccc1-c1cnc2nc(COc3cncc(F)c3)cn2c1` [Example 175, 5-fluoro-2-[2-[(5-fluoro-3-pyridyl)oxymethyl]imidazo[1,2-a]pyrimidin-6-yl]aniline], for which the EC50 fell in the range of 500 to 1000 nM.
To `OCc1cc(F)ccc1-c1cnc2nc(COc3ccc(F)cc3)cn2c1` [Example 97, [5-fluoro-2-[2-[(4-fluorophenoxy)methyl]imidazo[1,2-a]pyrimidin-6-yl]phenyl]methanol] belongs 100 to 500 nM; to `Fc1cccc(OCc2cn3cc(-c4ccc(F)nc4)cnc3n2)c1` [Example 81, 2-[(3-fluorophenoxy)methyl]-6-(6-fluoro-3-pyridyl)imidazo[1,2-a]pyrimidine], 100 to 500 nM.
